What was measured:
[1] = format: physicochemical
Protocol: We recorded 2D-IR spectra of the intermediate species. The results are consistent with a lack of beta sheet structure and support the CD data (FIG. 4B). […] Samples of h-IAPP intermediates and h-IAPP amyloid fibrils were pelleted at 20,000 G for 20 minutes and the amount of soluble peptide remaining in the supernatant was measured. […] Characterization of the species in the supernatant and resuspended pellet by thioflavin-T and TEM, before addition of the solutions to cultured cells, confirm the absence of amyloid in the soluble phase and the presence of amyloid in the resuspended pellet. […] ANS is a small hydrophobic dye which has been widely used in protein folding studies. It typically binds to partially structured states which are rich in secondary structure, compact, but which have not yet established the final tertiary structure. […] The dye did bind to the final amyloid fibrils; an effect that is mediated in part by electrostatic interactions. A set of p-cyano-phenylalanine (p-cyanoPhe) analogs of h-IAPP were examined to probe further the nature of the toxic intermediate species. h-IAPP contains two phenylalanines at positions 15 and 23 and a single tyrosine located at the C-terminus. A set of three analogs were prepared in which one aromatic residue was replaced by p-cyanoPhe. […] It can also be quenched via FRET to tyrosine. p-CyanoPhe fluorescence is high for unaggregated IAPP and is quenched in the amyloid fibers. The intermediate species have high p-cyanoPhe fluorescence intensity and the value is the same as that of freshly dissolved material.

[2] = test system: MCP-1 and IL-1β mRNA expression; test: qRT-PCR of MCP-1 and IL-1β mRNA in β-cells; format: cell-based, rat; conditions: β-cells stimulated with peptide
Protocol: (§1) Assays for qRT-PCR were carried out in 6-well plates. Total cellular RNA was isolated from h-IAPP stimulated β-cells using Qiagen RNA isolation kit, and the quality of RNA samples was determined by measurement of 260:280 ratio. Only samples with a 260:280 ratio of 2.0 or higher were used for reverse transcription. RNA samples were also treated by RNAse-free DNAse to avoid genomic DNA contamination. One microgram of RNA from each sample was reverse-transcribed to cDNA using MCP-1 and IL-1β primers. Non-template negative controls were also performed to monitor non-specific reactions. RNA isolated from rat IAPP and non-h-IAPP treated beta cells were used as negative controls. Equal amounts of RNA were used in each qRT-PCR reaction, and 18S was used as the internal control for amplification at the same time. qRT-PCR reactions were carried out using an Applied Biosystems 7500 RealTime PCR machine. The relative mRNA contents were normalized using 18S and quantification was carried out using qRT-PCR Quantifier Software.

[3] = test system: MCP-1 and IL-1β mRNA expression; test: qRT-PCR of MCP-1 and IL-1β mRNA in smooth muscle cells; format: cell-based, mouse; conditions: peptide stimulation
Protocol: Mouse vascular SMCs were cultured from the aortas of 10-week-old male mice using a modification of the procedure of Tarvo and Barret. See Tarvo et al. Blood Vessels. 1980; 17:110-116. SMCs were cultured following an explant protocol in accordance with institutional guidelines. Cultures were composed of 95% SM-α-actin positivity based on immunostaining.
as §1

CC[C@H](C)[C@H](NC(=O)[C@H](C)NC(=O)CNC(=O)[C@H](Cc1ccccc1)NC(=O)[C@H](CC(N)=O)NC(=O)[C@H](CC(N)=O)NC(=O)[C@H](CO)NC(=O)[C@H](CO)NC(=O)[C@H](Cc1c[nH]cn1)NC(=O)[C@@H](NC(=O)[C@H](CC(C)C)NC(=O)[C@H](Cc1ccccc1)NC(=O)[C@H](CC(N)=O)NC(=O)[C@H](C)NC(=O)[C@H](CC(C)C)NC(=O)[C@H](CCCNC(=N)N)NC(=O)[C@H](CCC(N)=O)NC(=O)[C@@H](NC(=O)[C@H](C)NC(=O)[C@@H]1CSSC[C@H](NC(=O)[C@@H](N)CCCCN)C(=O)N[C@@H](CC(N)=O)C(=O)N[C@@H]([C@@H](C)O)C(=O)N[C@@H](C)C(=O)N[C@@H]([C@@H](C)O)C(=O)N1)[C@@H](C)O)C(C)C)C(=O)N[C@@H](CC(C)C)C(=O)N[C@@H](CO)C(=O)N[C@@H](CO)C(=O)N[C@H](C(=O)N[C@@H](CC(N)=O)C(=O)N[C@H](C(=O)NCC(=O)N[C@@H](CO)C(=O)N[C@@H](CC(N)=O)C(=O)N[C@H](C(=O)N[C@@H](Cc1ccc(O)cc1)C(N)=O)[C@@H](C)O)C(C)C)[C@@H](C)O [h-IAPP, human islet amyloid polypeptide]
protein pelleted [1]: 6.5%
solubility of toxic oligomers (centrifugation) [1]: soluble and cannot be pelleted
solubility of toxic species (ultracentrifugation) [1]: soluble
protein remained in solution ([1]; 20 min): 93.5%
MCP-1 and IL-1β mRNA expression [2]: increase in MCP-1 and IL-1β mRNA expression
MCP-1 and IL-1β mRNA expression in smooth muscle cells [3]: increase in MCP-1 and IL-1β mRNA expression

Reference: patent US20130022620A1, “ASSAYS AND METHODS PERTAINING TO PRE-AMYLOID INTERMEDIATES” (priority 2011, published 2013)
